Laboratory results reported in patent US20250042889A1, “3CLPRO PROTEASE INHIBITOR” (SHANGHAI QILU PHARMACEUTICAL RESEARCH AND DEVELOPMENT …, priority 2021, published 2025).

target: SARS-COV-2 3CLpro/Mpro protease (Severe acute respiratory syndrome coronavirus 2 (2019-nCoV) (SARS-CoV-2), UniProt P0DTD1); experiment: Inhibitory effect on SARS-COV-2 3CLpro/Mpro protease by fluorescence resonance energy transfer; assay type: biochemical; conditions: activity intervals A-D, read-out: IC50 (nM), Inhibition on SARS-CoV-2 3CLpro/Mpro protease

`O=C(c1cc(Br)cc([N+](=O)[O-])c1N[C@@H]1CCCN(C(=O)c2cncc3ccccc23)C1)N1CCOCC1` [Example 38] and `O=C(c1cc(Br)cc([N+](=O)[O-])c1N[C@@H]1CCCN(C(=O)c2cncc3ccccc23)C1)N1CCCC1` [Example 39] cannot be ordered by IC50: under 10 nM for the first, under 10 nM for the second.

`O=C(c1cc(Br)cc([N+](=O)[O-])c1N[C@@H]1CCN(C(=O)c2cncc3ccccc23)C1)N1CCCC1` [Example 40] and `O=C(c1cc(Br)cc(C(F)(F)F)c1N[C@@H]1CCN(C(=O)c2cncc3ccccc23)C1)N1CCCCC1` [Example 48] fall in the same range of IC50: 10 to 50 nM for the first, 10 to 50 nM for the second.

`N#Cc1cncc(C(=O)N2CCC[C@@H](Nc3c(C(=O)N4CCCCC4)cc(Br)cc3[N+](=O)[O-])C2)c1` [Example 41] and `Nc1cncc(C(=O)N2CCC[C@@H](Nc3c(C(=O)N4CCCCC4)cc(Br)cc3[N+](=O)[O-])C2)c1` [Example 42] fall in the same range of IC50: 10 to 50 nM for the first, 10 to 50 nM for the second.

`Cc1cncc(C(=O)N2CCC[C@@H](Nc3c(C(=O)N4CCCCC4)cc(Br)cc3[N+](=O)[O-])C2)c1` [Example 43] and `O=C(c1cncc(Br)c1)N1CCC[C@@H](Nc2c(C(=O)N3CCCC3)cc(Br)cc2[N+](=O)[O-])C1` [Example 65] fall in the same range of IC50: 10 to 50 nM for the first, 10 to 50 nM for the second.

`O=C(c1cncc(Br)c1)N1CCC[C@@H](Nc2c(C(=O)N3CC4CC4C3)cc(Br)cc2[N+](=O)[O-])C1` (stereo partly shown) [Example 44] and `C[C@@H]1C[C@H](C)CN(C(=O)c2cc(Br)cc([N+](=O)[O-])c2N[C@@H]2CCCN(C(=O)c3cncc(Br)c3)C2)C1` [Example 72] cannot be ordered by IC50: under 10 nM for the first, under 10 nM for the second.

First: O=C(c1cncc(C2CC2)c1)N1CCC[C@@H](Nc2c(C(=O)N3CCCCC3)cc(Br)cc2[N+](=O)[O-])C1 [Example 45]
Second: O=C(c1cncnc1)N1CCC[C@@H](Nc2c(C(=O)N3CCCCC3)cc(Br)cc2[N+](=O)[O-])C1 [Example 60]
The IC50 of the first is lower: 10 to 50 nM for the first, 50 to 100 nM for the second.

`Cc1c(Br)cncc1C(=O)N1CCC[C@@H](Nc2c(C(=O)N3CCCCC3)cc(Br)cc2[N+](=O)[O-])C1` [Example 46] and `O=C(c1cc(Br)cc([N+](=O)[O-])c1N[C@@H]1CCCN(C(=O)c2cncc3cc(F)ccc23)C1)N1CCCCC1` [Example 103] fall in the same range of IC50: 10 to 50 nM for the first, 10 to 50 nM for the second.

`O=C(c1cncc(Br)c1)N1CC[C@@H](Nc2c(C(=O)N3CCCCC3)cc(Br)cc2C(F)(F)F)C1` [Example 47] and `O=C(c1cncc(Br)c1)N1CCC[C@@H](Nc2c(C(=O)N3CCCCC3)cc(Br)cc2C(F)(F)F)C1` [Example 66] fall in the same range of IC50: 10 to 50 nM for the first, 10 to 50 nM for the second.

First: O=C(c1cncc(Br)c1)N1CCC[C@@H](Nc2c(C(=O)N3CCC(F)(F)CC3)cc(Br)cc2C(F)(F)F)C1 [Example 49]
Second: O=C(c1cncc(Br)c1)N1CC[C@@H](Nc2c(C(=O)N3CCC(F)(F)CC3)cc(Br)cc2C(F)(F)F)C1 [Example 69]
The IC50 of the first is lower: 10 to 50 nM for the first, 50 to 100 nM for the second.

First: O=C(c1cncc(O)c1)N1CCC[C@@H](Nc2c(C(=O)N3CCC(F)(F)CC3)cc(Br)cc2[N+](=O)[O-])C1 [Example 50]
Second: Nc1cncc(C(=O)N2CCC[C@@H](Nc3c(C(=O)N4CCC(F)(F)CC4)cc(Br)cc3[N+](=O)[O-])C2)c1 [Example 71]
The IC50 of the first is higher: 50 to 100 nM for the first, 10 to 50 nM for the second.

First: O=C(c1cc(Br)cc([N+](=O)[O-])c1N[C@@H]1CCN(C(=O)c2cncc3cc(Cl)ccc23)C1)N1CC2CC2C1 (stereo partly shown) [Example 51]
Second: C[C@@H]1CN(C(=O)c2cc(Br)cc([N+](=O)[O-])c2N[C@@H]2CCN(C(=O)c3cncc(Br)c3)C2)C[C@H](C)O1 [Example 76]
The IC50 of the first is higher: 10 to 50 nM for the first, under 10 nM for the second. The second is the more potent here.

First: O=C(c1cc(=O)[nH]c(=O)[nH]1)N1CCC[C@@H](Nc2c(C(=O)N3CCC(F)(F)CC3)cc(Br)cc2[N+](=O)[O-])C1 [Example 53]
Second: O=C(c1cc(Br)cc([N+](=O)[O-])c1N[C@@H]1CCCN(C(=O)c2cc(=O)[nH]c3ccccc23)C1)N1CCC(F)(F)CC1 [Example 54]
The IC50 of the first is higher: 50 to 100 nM for the first, 10 to 50 nM for the second.

First: CNc1cncc(C(=O)N2CCC[C@@H](Nc3c(C(=O)N4CCO[C@H](C(F)F)C4)cc(Br)cc3[N+](=O)[O-])C2)c1 [Example 55]
Second: CNc1cncc(C(=O)N2CCC[C@@H](Nc3c(C(=O)N4C[C@@H](C)N(C)[C@@H](C)C4)cc(Br)cc3[N+](=O)[O-])C2)c1 [Example 79]
The IC50 of the first is lower: 10 to 50 nM for the first, 50 to 100 nM for the second. The first is the more potent here.

`O=C(c1cc(Br)cc([N+](=O)[O-])c1N[C@@H]1CCCN(C(=O)c2cnnc3ccccc23)C1)N1CCCCC1` [Example 56] and `O=C(c1cc(Br)cc(C(F)(F)F)c1N[C@@H]1CCCN(C(=O)c2cncc3ccccc23)C1)N1CCCCC1` [Example 67] fall in the same range of IC50: 10 to 50 nM for the first, 10 to 50 nM for the second.

`N#Cc1cc(Cl)cc(C(=O)N2CCCCC2)c1N[C@@H]1CCCN(C(=O)c2cncc3ccccc23)C1` [Example 59] and `CC1(Nc2c(C(=O)N3CCCCC3)cc(Br)cc2[N+](=O)[O-])CCCN(C(=O)c2cncc3ccccc23)C1` (stereo not shown) [Example 102] fall in the same range of IC50: 10 to 50 nM for the first, 10 to 50 nM for the second.

Compared with `O=C(c1cncc(OC(F)F)c1)N1CCC[C@@H](Nc2c(C(=O)N3CCCCC3)cc(Br)cc2[N+](=O)[O-])C1` [Example 61], `O=C(c1cncc(Br)c1)N1CC[C@@H](Nc2c(C(=O)N3CCCCC3)cc(Br)cc2[N+](=O)[O-])C1` [Example 64] is lower in IC50: 50 to 100 nM for the first, 10 to 50 nM for the second. The second is the more potent here.

Compared with `O=C(c1cncc(Br)c1)N1CC[C@@H](Nc2c(C(=O)N3CCCCC3)cc(Br)cc2C(F)(F)F)C1` [Example 68], `O=C(c1cncc(C(F)(F)F)c1)N1CCC[C@@H](Nc2c(C(=O)N3CCC(F)(F)CC3)cc(Br)cc2[N+](=O)[O-])C1` [Example 70] is lower in IC50: 50 to 100 nM for the first, 10 to 50 nM for the second.

Compared with `C[C@@H]1CN(C(=O)c2cc(Br)cc([N+](=O)[O-])c2N[C@@H]2CCCN(C(=O)c3cncc(Br)c3)C2)C[C@H](C)N1` [Example 73], `CNc1cncc(C(=O)N2CCC[C@@H](Nc3c(C(=O)N4CC(=O)NC(C)C4)cc(Br)cc3[N+](=O)[O-])C2)c1` (stereo partly shown) [Example 96] is higher in IC50: 10 to 50 nM for the first, 50 to 100 nM for the second. The first is the more potent here.

First: Cc1cncc(C(=O)N2CCC[C@@H](Nc3c(C(=O)N4CCC(F)(F)CC4)cc(Br)cc3[N+](=O)[O-])C2)c1 [Example 74]
Second: O=C(c1cncc(I)c1)N1CCC[C@@H](Nc2c(C(=O)N3CCC(F)(F)CC3)cc(Br)cc2[N+](=O)[O-])C1 [Example 75]
The IC50 of the first is higher: 50 to 100 nM for the first, under 10 nM for the second.

`CNc1cncc(C(=O)N2C[C@H](Nc3c(C(=O)N4CCCCC4)cc(Br)cc3[N+](=O)[O-])C(F)(F)C2)c1` [Example 81] and `CNc1cncc(C(=O)N2C[C@H](Nc3c(C(=O)N4CCCCC4)cc(Br)cc3[N+](=O)[O-])C3(CC3)C2)c1` [Example 82] fall in the same range of IC50: 10 to 50 nM for the first, 10 to 50 nM for the second.

`CNc1cncc(C(=O)N2C[C@H](Nc3c(C(=O)N4CC5C(C4)C5(C)C)cc(Br)cc3[N+](=O)[O-])C3(CC3)C2)c1` (stereo partly shown) [Example 83] and `CNc1cncc(C(=O)N2C[C@H](Nc3c(C(=O)N4C[C@H](C)C[C@H](C)C4)cc(Br)cc3[N+](=O)[O-])C3(CC3)C2)c1` [Example 86] fall in the same range of IC50: 10 to 50 nM for the first, 10 to 50 nM for the second.

`CNc1cncc(C(=O)N2C[C@H](Nc3c(C(=O)N4CCN(CC(F)(F)F)CC4)cc(Br)cc3[N+](=O)[O-])C3(CC3)C2)c1` [Example 84] and `CNc1cncc(C(=O)N2CC(Nc3c(C(=O)N4CCN(CC(F)(F)F)CC4)cc(Br)cc3[N+](=O)[O-])C(F)(F)C2)c1` (stereo not shown) [Example 98] fall in the same range of IC50: 10 to 50 nM for the first, 10 to 50 nM for the second.

Compared with `CNc1cncc(C(=O)N2C[C@H](Nc3c(C(=O)N4CCN(CC(F)(F)F)C(=O)C4)cc(Br)cc3[N+](=O)[O-])C3(CC3)C2)c1` [Example 85], `CNc1cncc(C(=O)N2CC(Nc3c(C(=O)N4CCN(CC(F)(F)F)C(=O)C4)cc(Br)cc3[N+](=O)[O-])C(F)(F)C2)c1` (stereo not shown) [Example 99] is higher in IC50: 10 to 50 nM for the first, 100 to 200 nM for the second. The first is the more potent here.

`CNc1cncc(C(=O)N2C[C@H](Nc3c(C(=O)N4CCC(C)(C)CC4)cc(Br)cc3[N+](=O)[O-])C3(CC3)C2)c1` [Example 87] and `Cc1cc(C(=O)N2C[C@H](Nc3c(C(=O)N4CCC(C)(C)CC4)cc(Br)cc3[N+](=O)[O-])C3(CC3)C2)cc(=O)[nH]1` [Example 93] fall in the same range of IC50: 10 to 50 nM for the first, 10 to 50 nM for the second.

`Cc1cc(C(=O)N2C[C@H](Nc3c(C(=O)N4CC5C(C4)C5(C)C)cc(Br)cc3[N+](=O)[O-])C3(CC3)C2)cc(=O)[nH]1` (stereo partly shown) [Example 88] and `Cc1cc(C(=O)N2C[C@H](Nc3c(C(=O)N4C[C@H](C)C[C@H](C)C4)cc(Br)cc3[N+](=O)[O-])C3(CC3)C2)cc(=O)[nH]1` [Example 92] fall in the same range of IC50: 10 to 50 nM for the first, 10 to 50 nM for the second.

`Cc1cc(C(=O)N2C[C@H](Nc3c(C(=O)NCC(F)(F)F)cc(Br)cc3[N+](=O)[O-])C3(CC3)C2)cc(=O)[nH]1` [Example 89] and `Cc1cc(C(=O)N2C[C@H](Nc3c(C(=O)N4CCN(CC(F)(F)F)CC4)cc(Br)cc3[N+](=O)[O-])C3(CC3)C2)cc(=O)[nH]1` [Example 90] fall in the same range of IC50: 10 to 50 nM for the first, 10 to 50 nM for the second.

`Cc1cc(C(=O)N2C[C@H](Nc3c(C(=O)N4CCN(CC(F)(F)F)C(=O)C4)cc(Br)cc3[N+](=O)[O-])C3(CC3)C2)cc(=O)[nH]1` [Example 91] and `Cc1cc(C(=O)N2C[C@H](Nc3c(C(=O)N4CCC5(CC4)CC5)cc(Br)cc3[N+](=O)[O-])C3(CC3)C2)cc(=O)[nH]1` [Example 94] fall in the same range of IC50: 10 to 50 nM for the first, 10 to 50 nM for the second.

First: Cc1cc(C(=O)N2C[C@H](Nc3c(C(=O)N4CCC5(CCC5)CC4)cc(Br)cc3[N+](=O)[O-])C3(CC3)C2)cc(=O)[nH]1 [Example 95]
Second: Cc1cc(C(=O)N2CC(Nc3c(C(=O)N4CCCCC4)cc(Br)cc3[N+](=O)[O-])C(F)(F)C2)cc(=O)[nH]1 (stereo not shown) [Example 101]
The IC50 of the first is lower: 10 to 50 nM for the first, 50 to 100 nM for the second. The first is the more potent here.

`CNc1cncc(C(=O)N2CC(Nc3c(C(=O)N4C[C@H](C)C[C@H](C)C4)cc(Br)cc3[N+](=O)[O-])C(F)(F)C2)c1` (stereo partly shown) [Example 100] and `O=C(c1cncc(Br)c1)N1CC(Nc2c(C(=O)N3CCC(F)(F)CC3)cc(Br)cc2[N+](=O)[O-])C(F)(F)C1` (stereo not shown) [Example 104] fall in the same range of IC50: 10 to 50 nM for the first, 10 to 50 nM for the second.

First: O=C(c1cc(Br)c[n+]([O-])c1)N1CCC[C@@H](Nc2c(C(=O)N3CCC(F)(F)CC3)cc(Br)cc2[N+](=O)[O-])C1 [Example 105]
Second: O=C(c1cc(Br)cnc1F)N1CCC[C@@H](Nc2c(C(=O)N3CCC(F)(F)CC3)cc(Br)cc2[N+](=O)[O-])C1 [Example 106]
The IC50 of the first is higher: 50 to 100 nM for the first, 10 to 50 nM for the second.

`O=C(N[C@H]1CCCC[C@H]1Nc1c(C(=O)N2CCOCC2)cc(Br)cc1[N+](=O)[O-])c1cc(=O)[nH]c2ccccc12` [Example 107] was tested, and the IC50 was 10 to 50 nM.
